Each block holds one compound with its values, some of them ahead of it. Active and inactive are the calls of the source.
Key:
[1] = molecular target: RNA-editing ligase 1, mitochondrial (Trypanosoma brucei brucei, UniProt P86926); assay: inhibition of trypanosome RNA editing ligase – biochemical, fluorescence, Trypanosoma brucei, dose response (AID 1117295); format: functional
[2] = molecular target: Ubiquitin carboxyl-terminal hydrolase BAP1 (Homo sapiens, UniProt Q92560); assay: inhibition of BAP1 ubiquitin hydrolase activity – biochemical, dose response (AID 714); format: functional
[3] = Late stage results for the probe development effort to identify inhibitors of Plasmodium falciparum gametocytes: Luminescence-based cell-based high throughput dose response assay to identify inhibitors of viability of late stage Plasmodium falciparum gametocytes.; format: functional
[4] = molecular target: Sphingosine 1-phosphate receptor 2 (Homo sapiens, UniProt O95136); assay: Dose Response Cell Based Assay for Antagonists of the S1P2 Receptor. [Related pubchem assays: 856, 736 ]; format: functional
cells = format: functional, cell-based; conditions: INS-1E
[5] = IC50 of insulin release inhibition, rat insulinoma INS-1E line, 5 mM glucose, cell-based (AID 1117331); format: functional
Paired box protein Pax-8 = Paired box protein Pax-8 (Homo sapiens, UniProt Q06710); assay: PAX8 transcriptional activity inhibition in RMG-I – RMG-I cells, luciferase, cherry-pick, dose response (AID 687027); format: functional, cell-based;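 also: luciferase reporter driven by Pax8 target thyroperoxidase promoter measured by SteadyGlo luminescence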
[6] = IGROV1 cell killing – plate reader, dry powder samples, PAX8 inhibitor project, dose response (AID 743043); format: functional, cell-based; conditions: IGROV-1
[7] = inhibitors acting on PAX2 in cells – cell-based, plate reader, dry powder samples, selectivity assay for PAX8 inhibitor project, dose response (AID 743048); format: functional;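 also: HEK293 cells carrying a WT1 promoter luciferase reporter driven by expressed Pax2; potency is for inhibition of Pax2 driven reporter signal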
[8] = PAX8-dependent cell viability loss – plate reader, dry powder, dose response (AID 743049); format: functional, cell-based
[9] = PAX5 cellular inhibition readout – cell-based, plate reader, dry powder samples, selectivity assay for PAX8 inhibitor project, dose response (AID 743047); format: functional;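 also: HEK293 cells carrying a Pax5 driven CD19 promoter luciferase reporter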
[10] = OV-90 cell viability loss – plate reader, dry powder, SA8, PAX8 inhibitor project, dose response (AID 743149); format: functional, cell-based
[11] = COV434 cell viability loss – plate reader, dry powder, SA7, cytotoxicity control for PAX8 inhibitor project, dose response (AID 743145); format: functional, cell-based
[12] = non-specific 3'UTR reporter inhibition in Clone20-Shn3RL – cell-based, Renilla luciferase, cherry-picked, counter-screen for Shn3 inhibitor project, dose response (AID 624133); format: functional
[13] = HCT116 cell viability decrease, GSK3B pretreatment – CellTiter-Glo, IC50, dose response (AID 1117339); format: functional; conditions: HCT-116
[14] = loss of viability in HepG2 cells – cell-based, CellTiter-Glo, cherry-picked, cytotoxicity control for Shn3 inhibitor project, dose response (AID 624134); format: functional
[15] = molecular target: Glucose-6-phosphate 1-dehydrogenase (Homo sapiens, UniProt P11413); assay: inhibition of Homo sapiens G6PD, dose series – biochemical, fluorescence, selectivity assay for P. falciparum G6PD inhibitor project, dose response (AID 504792); format: functional
[16] = rise of 4N DNA cells, HeLa – IC50, dose response (AID 1117351); format: functional, cell-based
[17] = cytotoxicity toward Colo320 cells – cell-based, CellTiter-Glo luminescence, IC50, dose response (AID 1117334); format: functional; conditions: COLO 320
[18] = rise of 2N DNA cells, HeLa – IC50, dose response (AID 1117349); format: functional, cell-based
[19] = Reduced DLD-1 viability, concentration-response, CellTiter-Glo luminescence (AID 1117352); format: functional
[20] = reduction of Shn3 3'UTR-driven luciferase in osteoblasts – cell-based, Clone20 osteoblasts, firefly luciferase, cherry-picked, dose response (AID 624132); format: functional;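 also: firefly luciferase luminescence from reporter carrying the Shn3 3'UTR in osteoblasts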
[21] = cytotoxicity toward HCT116 cells – cell-based, CellTiter-Glo luminescence, IC50, dose response (AID 1117332); format: functional; conditions: HCT-116
[22] = molecular target: E3 ubiquitin-protein ligase Mdm2 (Homo sapiens, UniProt Q00987); assay: MDM2-luc reporter signal enhancers, multi-concentration potency testing, MDM2 ubiquitin-protein ligase inhibitor program, whole-cell format, luminescence detection, 384-well microplate (AID 1394); format: functional;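 also: MDM2 E3 inhibitors raise luminescence so EC50 is for signal enhancement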
[23] = Luminescence Cell-Based Dose Retest to Confirm Inhibitors of Cancer Stem Cells. [Related pubchem assays (depositor defined):AID2717, AID2721]; format: functional; conditions: Homo sapiens
[24] = molecular target: Voltage-gated inwardly rectifying potassium channel KCNH2 (Homo sapiens, UniProt Q12809); assay: concentration-dependent hERG rescue from blockers – cell-based, thallium flux, dose response (AID 2121); format: ADME
[25] = viability loss in HepG2 liver cells – cell-based, luminescence, dry powder, set 9, cytotoxicity control, dose response (AID 743358); format: functional
[26] = molecular target: T1, Aryl hydrocarbon receptor (Homo sapiens, UniProt P35869); assay: Luminescence-based cell-based high throughput dose response assay for activators of the Aryl Hydrocarbon Receptor (AHR). [Related pubchem assays: 2796 (Primary screen (AHR activators in singlicate)), 2845 (Confirmation screen (AHR activators in triplicate)), 434939 (Counterscreen (PXR activators in triplicate)), 2804 (Summary (AHR activators))]; format: ADME
T1 sequence (P35869 whole entry): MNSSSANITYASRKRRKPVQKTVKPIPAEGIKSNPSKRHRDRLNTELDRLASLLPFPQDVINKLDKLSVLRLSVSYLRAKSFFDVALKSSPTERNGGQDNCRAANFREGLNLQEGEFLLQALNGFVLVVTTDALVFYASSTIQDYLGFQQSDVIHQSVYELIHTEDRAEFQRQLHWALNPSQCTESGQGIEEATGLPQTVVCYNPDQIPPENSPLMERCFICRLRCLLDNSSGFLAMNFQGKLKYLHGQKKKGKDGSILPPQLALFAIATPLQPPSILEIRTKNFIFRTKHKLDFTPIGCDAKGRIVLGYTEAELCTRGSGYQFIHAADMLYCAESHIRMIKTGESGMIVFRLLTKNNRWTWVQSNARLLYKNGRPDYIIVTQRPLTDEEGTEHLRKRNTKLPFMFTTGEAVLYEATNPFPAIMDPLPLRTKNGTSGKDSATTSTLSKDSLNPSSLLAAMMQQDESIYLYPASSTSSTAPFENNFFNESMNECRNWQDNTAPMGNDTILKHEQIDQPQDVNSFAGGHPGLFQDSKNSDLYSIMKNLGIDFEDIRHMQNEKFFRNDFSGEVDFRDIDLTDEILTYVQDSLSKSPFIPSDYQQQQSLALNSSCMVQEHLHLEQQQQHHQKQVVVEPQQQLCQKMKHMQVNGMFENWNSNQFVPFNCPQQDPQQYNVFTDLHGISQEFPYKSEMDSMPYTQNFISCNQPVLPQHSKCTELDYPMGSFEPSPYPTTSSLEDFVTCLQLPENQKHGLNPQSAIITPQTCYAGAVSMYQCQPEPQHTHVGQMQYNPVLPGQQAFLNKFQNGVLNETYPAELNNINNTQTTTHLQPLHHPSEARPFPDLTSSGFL

[27] = molecular target: Peroxisome proliferator-activated receptor gamma/Nuclear receptor corepressor 2 (Homo sapiens, UniProt P37231+Q9Y618); assay: Counterscreen for NR2E3 inverse agonists: TR-FRET-based biochemical high throughput dose response assay to identify inverse agonists of the interaction between peroxisome proliferator-activated receptor gamma (PPARg) and nuclear receptor co-repressor 2 (NCOR2).; format: functional
[28] = molecular target: Peroxisome proliferator-activated receptor gamma/Nuclear receptor coactivator 1 (Homo sapiens, UniProt P37231); assay: (§1) TR-FRET dose response biochemical High Throughput Screening assay for agonists of the steroid receptor coactivator 1 (SRC-1) recruitment by the peroxisome proliferator-activated receptor gamma (PPAR gamma): non-selective agonists. [Related pubchem assays (depositor defined):AID1300, AID1808, AID504735, AID631]; format: protein assay
[29] = molecular target: Peroxisome proliferator-activated receptor gamma/Nuclear receptor coactivator 3 (Homo sapiens, UniProt P37231); assay: as §1, with “3 (SRC-3)” for “1 (SRC-1)”, “assays: 1301 (Confirmation screen.), 1048 (Primary screen.)]” for “assays (depositor defined):AID1300, AID1808, AID504735, AID631]”; format: functional
[30] = molecular target: Photoreceptor-specific nuclear receptor (Homo sapiens, UniProt Q9Y5X4); assay: ligands suppressing NR2E3 nuclear receptor activity – biochemical, TR-FRET, dose response (AID 463256); format: functional
[31] = molecular target: Peroxisome proliferator-activated receptor gamma/Nuclear receptor coactivator 2 (Homo sapiens, UniProt P37231); assay: TR-FRET dose response biochemical High Throughput Screening assay for agonists of the steroid receptor coactivator 2 (SRC-2) recruitment by the peroxisome proliferator-activated receptor gamma (PPAR gamma): non-selective agonists. [Related pubchem assays: 1297, 1032 ]; format: functional

Peroxisome proliferator-activated receptor gamma/Nuclear receptor coactivator 1, sequence (P37231 whole entry): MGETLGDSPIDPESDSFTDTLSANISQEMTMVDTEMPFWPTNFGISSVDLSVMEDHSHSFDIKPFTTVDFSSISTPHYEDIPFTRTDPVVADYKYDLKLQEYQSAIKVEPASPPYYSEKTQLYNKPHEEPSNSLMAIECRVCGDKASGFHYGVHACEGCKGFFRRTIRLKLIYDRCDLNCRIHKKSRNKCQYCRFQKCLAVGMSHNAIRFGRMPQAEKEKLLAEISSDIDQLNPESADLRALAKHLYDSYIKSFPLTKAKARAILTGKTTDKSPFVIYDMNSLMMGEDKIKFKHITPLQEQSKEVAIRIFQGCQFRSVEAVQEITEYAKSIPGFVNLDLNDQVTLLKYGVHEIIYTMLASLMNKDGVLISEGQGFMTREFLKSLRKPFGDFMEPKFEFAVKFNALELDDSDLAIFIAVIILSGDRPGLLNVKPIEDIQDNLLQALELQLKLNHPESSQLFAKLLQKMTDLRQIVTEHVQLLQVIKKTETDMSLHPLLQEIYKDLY
Peroxisome proliferator-activated receptor gamma/Nuclear receptor coactivator 1, sequence (Q15788 whole entry, further chain): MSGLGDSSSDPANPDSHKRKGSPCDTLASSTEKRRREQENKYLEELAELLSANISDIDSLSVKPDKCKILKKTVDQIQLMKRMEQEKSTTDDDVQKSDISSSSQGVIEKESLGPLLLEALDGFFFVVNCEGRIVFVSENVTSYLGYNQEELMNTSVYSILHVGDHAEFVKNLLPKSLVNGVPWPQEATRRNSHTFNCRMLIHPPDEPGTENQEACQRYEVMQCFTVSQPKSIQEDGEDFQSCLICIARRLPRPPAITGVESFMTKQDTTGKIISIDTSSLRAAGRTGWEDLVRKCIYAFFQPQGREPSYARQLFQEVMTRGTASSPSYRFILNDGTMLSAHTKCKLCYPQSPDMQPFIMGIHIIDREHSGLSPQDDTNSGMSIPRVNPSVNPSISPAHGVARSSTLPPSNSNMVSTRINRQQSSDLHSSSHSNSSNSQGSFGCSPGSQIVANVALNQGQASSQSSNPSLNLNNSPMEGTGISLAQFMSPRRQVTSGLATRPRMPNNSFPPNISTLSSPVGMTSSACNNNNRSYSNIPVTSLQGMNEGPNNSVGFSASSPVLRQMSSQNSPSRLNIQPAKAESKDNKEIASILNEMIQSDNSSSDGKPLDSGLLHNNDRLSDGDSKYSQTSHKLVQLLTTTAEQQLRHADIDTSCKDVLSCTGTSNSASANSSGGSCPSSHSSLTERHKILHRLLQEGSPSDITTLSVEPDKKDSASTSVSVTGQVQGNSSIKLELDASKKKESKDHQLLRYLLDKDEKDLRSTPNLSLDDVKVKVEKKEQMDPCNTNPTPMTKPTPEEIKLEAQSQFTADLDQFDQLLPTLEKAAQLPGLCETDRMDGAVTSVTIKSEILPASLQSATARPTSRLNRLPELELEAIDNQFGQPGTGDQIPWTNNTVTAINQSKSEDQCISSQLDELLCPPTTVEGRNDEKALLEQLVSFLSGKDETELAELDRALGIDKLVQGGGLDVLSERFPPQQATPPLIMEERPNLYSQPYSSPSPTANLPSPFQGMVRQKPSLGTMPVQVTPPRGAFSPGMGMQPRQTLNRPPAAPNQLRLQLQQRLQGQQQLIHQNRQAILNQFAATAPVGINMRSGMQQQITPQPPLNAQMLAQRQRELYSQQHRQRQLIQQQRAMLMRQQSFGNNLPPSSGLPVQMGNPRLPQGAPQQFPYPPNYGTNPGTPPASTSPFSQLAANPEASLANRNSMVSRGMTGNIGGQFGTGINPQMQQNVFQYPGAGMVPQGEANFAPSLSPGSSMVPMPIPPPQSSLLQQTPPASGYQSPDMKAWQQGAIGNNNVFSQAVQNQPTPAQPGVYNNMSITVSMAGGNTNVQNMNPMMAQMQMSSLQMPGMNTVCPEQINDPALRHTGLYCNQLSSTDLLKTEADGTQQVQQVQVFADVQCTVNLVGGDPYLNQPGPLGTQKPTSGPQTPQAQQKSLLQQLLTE
Peroxisome proliferator-activated receptor gamma/Nuclear receptor coactivator 3, sequence (P37231 whole entry): as the sequence (P37231 whole entry) above
Peroxisome proliferator-activated receptor gamma/Nuclear receptor coactivator 3, sequence (Q9Y6Q9 whole entry, further chain): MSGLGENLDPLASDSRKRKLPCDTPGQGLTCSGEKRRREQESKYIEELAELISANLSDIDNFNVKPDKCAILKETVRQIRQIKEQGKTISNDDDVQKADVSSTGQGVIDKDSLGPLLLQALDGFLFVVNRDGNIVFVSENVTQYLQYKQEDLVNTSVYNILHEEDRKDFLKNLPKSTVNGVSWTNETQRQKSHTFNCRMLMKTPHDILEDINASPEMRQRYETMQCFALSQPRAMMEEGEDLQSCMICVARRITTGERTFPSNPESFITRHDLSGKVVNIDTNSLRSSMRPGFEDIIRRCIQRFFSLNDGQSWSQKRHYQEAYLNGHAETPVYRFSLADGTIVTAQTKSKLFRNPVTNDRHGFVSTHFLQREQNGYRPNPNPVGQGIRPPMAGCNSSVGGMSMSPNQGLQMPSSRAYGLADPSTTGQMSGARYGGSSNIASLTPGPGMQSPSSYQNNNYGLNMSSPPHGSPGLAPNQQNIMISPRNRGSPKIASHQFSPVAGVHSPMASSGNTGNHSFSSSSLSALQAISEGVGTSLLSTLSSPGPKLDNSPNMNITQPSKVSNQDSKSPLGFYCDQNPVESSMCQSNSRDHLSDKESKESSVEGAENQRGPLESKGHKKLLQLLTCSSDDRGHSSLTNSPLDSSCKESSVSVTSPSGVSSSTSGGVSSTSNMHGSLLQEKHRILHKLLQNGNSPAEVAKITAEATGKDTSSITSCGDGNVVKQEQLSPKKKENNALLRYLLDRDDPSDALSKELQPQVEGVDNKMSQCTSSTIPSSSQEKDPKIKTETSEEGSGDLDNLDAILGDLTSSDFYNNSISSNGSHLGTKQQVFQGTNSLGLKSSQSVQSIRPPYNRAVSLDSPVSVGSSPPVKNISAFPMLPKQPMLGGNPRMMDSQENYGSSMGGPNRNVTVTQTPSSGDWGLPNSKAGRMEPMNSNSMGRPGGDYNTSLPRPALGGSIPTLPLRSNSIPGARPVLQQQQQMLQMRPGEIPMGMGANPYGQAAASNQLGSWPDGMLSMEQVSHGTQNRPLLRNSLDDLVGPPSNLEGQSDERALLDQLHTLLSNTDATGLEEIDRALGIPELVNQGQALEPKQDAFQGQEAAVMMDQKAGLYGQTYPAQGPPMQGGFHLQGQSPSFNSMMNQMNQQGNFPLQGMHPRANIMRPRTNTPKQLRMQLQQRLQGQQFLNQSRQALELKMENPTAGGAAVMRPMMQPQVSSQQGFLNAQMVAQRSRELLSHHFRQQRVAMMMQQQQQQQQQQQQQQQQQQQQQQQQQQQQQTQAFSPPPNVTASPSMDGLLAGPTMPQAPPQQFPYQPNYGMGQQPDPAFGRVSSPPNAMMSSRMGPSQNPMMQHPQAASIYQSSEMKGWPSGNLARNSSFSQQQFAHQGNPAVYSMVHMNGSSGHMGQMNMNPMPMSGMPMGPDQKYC
RNA-editing ligase 1, mitochondrial, sequence (P86926 whole entry): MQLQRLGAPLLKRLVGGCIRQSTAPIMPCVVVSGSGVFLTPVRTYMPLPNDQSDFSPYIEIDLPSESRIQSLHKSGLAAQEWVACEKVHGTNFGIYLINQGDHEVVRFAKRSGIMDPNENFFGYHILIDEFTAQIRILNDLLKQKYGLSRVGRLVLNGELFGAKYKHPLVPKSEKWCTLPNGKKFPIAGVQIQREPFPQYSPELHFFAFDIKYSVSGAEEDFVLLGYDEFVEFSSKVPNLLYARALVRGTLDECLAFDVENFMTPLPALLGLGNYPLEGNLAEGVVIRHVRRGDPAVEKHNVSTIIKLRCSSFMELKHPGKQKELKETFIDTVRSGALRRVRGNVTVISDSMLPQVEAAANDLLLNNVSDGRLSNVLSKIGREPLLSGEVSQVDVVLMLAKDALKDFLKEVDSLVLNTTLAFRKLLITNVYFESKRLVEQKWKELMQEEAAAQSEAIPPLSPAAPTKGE
Glucose-6-phosphate 1-dehydrogenase, sequence (P11413 whole entry): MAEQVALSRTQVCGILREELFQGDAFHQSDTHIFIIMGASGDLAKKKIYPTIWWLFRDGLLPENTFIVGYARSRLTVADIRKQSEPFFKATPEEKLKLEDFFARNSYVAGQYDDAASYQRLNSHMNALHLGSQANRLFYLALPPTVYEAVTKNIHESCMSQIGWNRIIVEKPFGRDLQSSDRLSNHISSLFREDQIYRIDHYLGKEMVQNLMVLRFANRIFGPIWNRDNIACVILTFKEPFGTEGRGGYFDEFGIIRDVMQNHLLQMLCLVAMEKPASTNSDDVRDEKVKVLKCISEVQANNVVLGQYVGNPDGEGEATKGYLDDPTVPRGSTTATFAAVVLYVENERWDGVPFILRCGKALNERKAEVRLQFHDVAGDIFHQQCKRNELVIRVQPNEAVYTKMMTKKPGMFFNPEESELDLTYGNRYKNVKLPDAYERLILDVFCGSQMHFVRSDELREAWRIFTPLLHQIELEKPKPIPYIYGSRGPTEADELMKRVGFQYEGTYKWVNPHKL

IC50 [1]: > 96.6 µM (inactive)
Compound: COc1cccc(C(=O)NCCS(=O)(=O)NC(C)CCc2ccccc2)c1 (stereo not drawn)

IC50 [2]: > 50 µM (not active)
Compound: CSc1nc2c(cnn2-c2ccc(C)c(C)c2)c(=O)[nH]1

Compound: O=C(NC1=NCCS1)c1cn(-c2ccccc2)nc1-c1cccnc1
IC50 [3]: > 74.4 µM (inactive)

IC50 [4]: > 30 µM (not active)
Compound: O=C(O)c1sc2cc(C(F)(F)F)cnc2c1-c1cccs1

Compound: C#CCOC(C(=O)OCCN(C)C)(c1ccccc1)c1ccccc1
IC50 (cells): 9.67 µM (inactive)
IC50 [5]: 9.26 µM (inactive)

Compound: C[C@H](CO)N1C[C@H](C)[C@@H](CN(C)Cc2ccc(C(F)(F)F)cc2)OCCCC[C@H](C)Oc2ccc(NS(=O)(=O)c3ccc(F)cc3)cc2C1=O
AC50 (Paired box protein Pax-8): 6.28 µM (active)
AC50 [6]: 40.5 µM (active)
AC50 [7]: 18.8 µM (active)
AC50 [8]: 37.7 µM (active)
AC50 [9]: 24.3 µM (active)
AC50 [10]: 68.3 µM (active)
AC50 [11]: 55.1 µM (active)

Compound: O=C(Nc1ccc([N+](=O)[O-])cc1Cl)c1cc(Cl)ccc1O [NICLOSAMIDE]
AC50 [12]: 0.837 µM (active)
IC50 [13]: 0.00295 µM (active)
AC50 [14]: 1.62 µM (active)
IC50 [15]: > 80 µM (inactive)
IC50 [16]: > 10 µM (inactive)
IC50 [17]: 0.00826 µM (active)
IC50 [18]: > 10 µM (inactive)
IC50 [19]: 0.00349 µM (active)
AC50 [20]: 3 µM (active)
IC50 [21]: 0.00144 µM (active)

Compound: N#Cc1c(N)nc2c(c1-c1cccc(O)c1)CCCCCC2
EC50 [22]: 13.8 µM (not active)
AC50 [23]: 5.01 µM (active)

Compound: COc1ccc(C(=O)CC(=O)C(=O)Nc2ccccc2OC)cc1
EC50 [24]: 8.33 µM (active)

Compound: CN1c2ccc(-c3cccc(F)c3)cc2[C@H]2[C@H](CCN2C(=O)Nc2ccccc2F)[C@H]1CO
AC50 [25]: > 47 µM (inactive)

EC50 [26]: 0.583 µM (active)
Compound: O=C(Nc1cccc(Cl)c1)c1cccnn1

IC50 [27]: 2.07 µM (active)
EC50 [28]: 11.6 µM (inactive)
EC50 [29]: > 79.4 µM (not active)
IC50 [30]: > 39.8 µM (not active)
EC50 [31]: 11.1 µM (not active)
Compound: Cc1cc2nc(-c3ccc(SCC(=O)Nc4ccc(S(=O)(=O)N5CCCC5)cc4)nc3)[nH]c2cc1C

Reference: ChEMBL document CHEMBL1201862, “PubChem BioAssay data set” (2004)
